# Assay results taken from PubChem BioAssay AID2060329 (Molecular Pharmacology Branch, DTP, NCI, 2025).
# System: MCF7 multi-cell spheroids with HUVEC/MSC, viability
# Assay: Anticancer human tumor MCF7 cell line growth inhibition [IpAb];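 also: spheroids exposed to agents for seven days before readout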
# Conditions: for IC50: curve of first compound; for viability, T/C: stronger effect = lower value
# How it was run: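 Spheroids of 60% malignant cells, 25% HUVEC and 15% MSC were exposed to targeted agents combined with ipatasertib or abemaciclib. Doses started at or near clinical Cmax (10 microM when unknown) and fell in half-log steps.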
# [1] = second compound 0.1 µM, first compound 0.0316 µM
# [2] = second compound 0.1 µM, first compound 0.1 µM
# [3] = second compound 0.1 µM, first compound 0.316 µM
# [4] = second compound 0.1 µM, first compound 1 µM
# [5] = second compound 0.1 µM, first compound 3.16 µM
# [6] = second compound 0.1 µM, first compound 10 µM
# [7] = second compound 0.316 µM, first compound 0.0316 µM
# [8] = second compound 0.316 µM, first compound 0.1 µM
# [9] = second compound 0.316 µM, first compound 0.316 µM
# [10] = second compound 0.316 µM, first compound 1 µM
# [11] = second compound 0.316 µM, first compound 3.16 µM
# [12] = second compound 0.316 µM, first compound 10 µM
# [13] = second compound 1 µM, first compound 0.0316 µM
# [14] = second compound 1 µM, first compound 0.1 µM
# [15] = second compound 1 µM, first compound 0.316 µM
# [16] = second compound 1 µM, first compound 1 µM
# [17] = second compound 1 µM, first compound 3.16 µM
# [18] = second compound 1 µM, first compound 10 µM
SMILES,IC50 (second compound 0.1 µM) [nM],IC50 (second compound 0.316 µM) [nM],IC50 (second compound 1 µM) [nM],"viability, T/C [1] [%]","viability, T/C [2] [%]","viability, T/C [3] [%]","viability, T/C [4] [%]","viability, T/C [5] [%]","viability, T/C [6] [%]","viability, T/C [7] [%]","viability, T/C [8] [%]","viability, T/C [9] [%]","viability, T/C [10] [%]","viability, T/C [11] [%]","viability, T/C [12] [%]","viability, T/C [13] [%]","viability, T/C [14] [%]","viability, T/C [15] [%]","viability, T/C [16] [%]","viability, T/C [17] [%]",also measured
C=CCn1c(=O)c2cnc(Nc3ccc(N4CCN(C)CC4)cc3)nc2n1-c1cccc(C(C)(C)O)n1 + CCN1CCN(Cc2ccc(Nc3ncc(F)c(-c4cc(F)c5nc(C)n(C(C)C)c5c4)n3)nc2)CC1,741,965,850,113,83.5,71,42.6,29,36.7,109,109,88,49,37.9,36.8,88,94,87.1,43.9,41.6,"IC50 (second compound 0.01 µM): 485 nM; IC50 (second compound 0.0316 µM): 561 nM; viability, T/C (second compound 0.01 µM, first compound 0.0316 µM): 94.5%; viability, T/C (second compound 0.01 µM, first compound 0.1 µM): 90.6%; viability, T/C (second compound 0.01 µM, first compound 0.316 µM): 60.1%; viability, T/C (second compound 0.01 µM, first compound 1 µM): 32.8%; viability, T/C (second compound 0.01 µM, first compound 3.16 µM): 25.6%; viability, T/C (second compound 0.01 µM, first compound 10 µM): 25.6%; viability, T/C (second compound 0.0316 µM, first compound 0.0316 µM): 91.4%; viability, T/C (second compound 0.0316 µM, first compound 0.1 µM): 87.7%; viability, T/C (second compound 0.0316 µM, first compound 0.316 µM): 63.4%; viability, T/C (second compound 0.0316 µM, first compound 1 µM): 36.3%; viability, T/C (second compound 0.0316 µM, first compound 3.16 µM): 25.7%; viability, T/C (second compound 0.0316 µM, first compound 10 µM): 23.7%; viability, T/C [18]: 42.1%"
C=CCn1c(=O)c2cnc(Nc3ccc(N4CCN(C)CC4)cc3)nc2n1-c1cccc(C(C)(C)O)n1 + CC(C)NCC(C(=O)N1CCN(c2ncnc3c2C(C)CC3O)CC1)c1ccc(Cl)cc1,543,367,169,89.1,99.2,67.4,31.8,26.3,33,77.8,80.9,49.4,37.4,23.2,27,64.2,61.6,36.5,20.9,17.7,"IC50 (second compound 3.16 µM): < 31.6 nM; IC50 (second compound 10 µM): < 31.6 nM; viability, T/C [18]: 16.4%; viability, T/C (second compound 3.16 µM, first compound 0.0316 µM): 49.6%; viability, T/C (second compound 3.16 µM, first compound 0.1 µM): 38.2%; viability, T/C (second compound 3.16 µM, first compound 0.316 µM): 25.5%; viability, T/C (second compound 3.16 µM, first compound 1 µM): 14.6%; viability, T/C (second compound 3.16 µM, first compound 3.16 µM): 11.2%; viability, T/C (second compound 3.16 µM, first compound 10 µM): 7.69%; viability, T/C (second compound 10 µM, first compound 0.0316 µM): 42.4%; viability, T/C (second compound 10 µM, first compound 0.1 µM): 33.2%; viability, T/C (second compound 10 µM, first compound 0.316 µM): 19.4%; viability, T/C (second compound 10 µM, first compound 1 µM): 10.6%; viability, T/C (second compound 10 µM, first compound 3.16 µM): 8.49%; viability, T/C (second compound 10 µM, first compound 10 µM): 4.08%"
